PMC11985751, “Synthesis, bioactivity, and molecular docking studies: novel arylpiperazine derivatives as potential new-resistant AR antagonists” (Frontiers in Chemistry, 2025)

What was measured:
[1] = system: PC-3; assay: In vitro cytotoxicity, CCK-8 assay; assay type: cell-based, human; conditions: CCK-8, mean ± SD of three trials
Description: (§1) PC-3 and WPMY-1 cells were cultured in Dulbecco’s modiffcation Eagle’s medium (DMEM, Invitrogen, Carlsbad, CA, United States) supplemented with 10% fetal bovine serum (FBS, Hyclone, Logan, UT, United States), 100 U/mL penicillin and 0.1 mg/mL streptomycin (Invitrogen). DU145 cells were cultured in RPMI1640 media supplemented with 10% fetal bovine serum (FBS, Hyclone), 100 U/mL penicillin and 0.1 mg/mL streptomycin (Invitrogen). LNCaP cells were cultured in F12 media supplemented with 10% fetal bovine serum (FBS, Hyclone), 100 U/mL penicillin and 0.1 mg/mL streptomycin (Invitrogen). The cells were incubated at 37°C in a humidified atmosphere with 5% CO2([Chen et al., 2025]; [Jiang et al., 2024]). […]
(§2) The compound concentrations were set at 30, 15, 7.5, 3.75, 1.88, and 0.94 μmol/L. The absorbance (A) was measured at 450 nm using a microplate reader. […] All experiments were repeated three times under identical conditions, and the mean value was taken as the final result.
(§3) The cytotoxic activity of derivatives 5–24 against three human prostate cancer cell lines (PC-3, LNCaP, and DU145) and one type of human normal prostate epithelial cells was evaluated using the CCK-8 method.

[2] = system: LNCaP; assay: In vitro cytotoxicity, CCK-8 assay; assay type: cell-based, human; conditions: LNCaP cells, CCK-8, mean ± SD of three trials
Description: PC-3 and WPMY-1 cells were cultured in Dulbecco’s modiffcation Eagle’s medium (DMEM, Invitrogen, Carlsbad, CA, United States) supplemented with 10% fetal bovine serum (FBS, Hyclone, Logan, UT, United States), 100 U/mL penicillin and 0.1 mg/mL streptomycin (Invitrogen). DU145 cells were cultured in RPMI1640 media supplemented with 10% fetal bovine serum (FBS, Hyclone), 100 U/mL penicillin and 0.1 mg/mL streptomycin (Invitrogen). LNCaP cells were cultured in F12 media supplemented with 10% fetal bovine serum (FBS, Hyclone), 100 U/mL penicillin and 0.1 mg/mL streptomycin (Invitrogen). The cells were incubated at 37°C in a humidified atmosphere with 5% CO2([Chen et al., 2025]; [Jiang et al., 2024]).
The proliferative capacity of cells was evaluated through the implementation of a Cell Counting Kit-8 (CCK-8) assay, supplied by Dojindo (Japan), to quantify cellular growth. Post-transfection, cells were dispensed into a 96-well microplate at a density of 3 × 10^3 cells per well and incubated for intervals of 0, 24, 48, 72, 96, and 120 h. Following this, 10 μL of the CCK-8 solution was introduced into each well and the plates were returned to the incubator for an additional 2-h period at 37°C under 5% CO2 conditions. Absorbance readings at 450 nm were subsequently taken using an ELISA reader manufactured by Bio Tek (United States) ([Chen et al., 2022]; [Zhou et al., 2024]).
as §2, §3

[3] = system: DU145; assay: In vitro cytotoxicity, CCK-8 assay; assay type: cell-based; conditions: Homo sapiens, DU-145; DU145 cells, CCK-8, mean ± SD of three trials
Description: as §1, §2, §3

[4] = system: WPMY-1; assay: In vitro cytotoxicity, CCK-8 assay (normal prostatic epithelial cells); assay type: cell-based; conditions: Homo sapiens; WPMY-1 normal prostatic epithelial cells, CCK-8, mean ± SD of three trials
Description: as §1, §2, §3

[5] = target: T1, AR (Homo sapiens, UniProt P10275); assay: AR reporter gene (luciferase) assay, co-treatment with 1 nM R1881; assay type: cell-based; conditions: 10 μM compound, inhibition rate as ratio to R1881 control, read-out: AR antagonistic activity% (10 μM)
T1 sequence (P10275 1-920): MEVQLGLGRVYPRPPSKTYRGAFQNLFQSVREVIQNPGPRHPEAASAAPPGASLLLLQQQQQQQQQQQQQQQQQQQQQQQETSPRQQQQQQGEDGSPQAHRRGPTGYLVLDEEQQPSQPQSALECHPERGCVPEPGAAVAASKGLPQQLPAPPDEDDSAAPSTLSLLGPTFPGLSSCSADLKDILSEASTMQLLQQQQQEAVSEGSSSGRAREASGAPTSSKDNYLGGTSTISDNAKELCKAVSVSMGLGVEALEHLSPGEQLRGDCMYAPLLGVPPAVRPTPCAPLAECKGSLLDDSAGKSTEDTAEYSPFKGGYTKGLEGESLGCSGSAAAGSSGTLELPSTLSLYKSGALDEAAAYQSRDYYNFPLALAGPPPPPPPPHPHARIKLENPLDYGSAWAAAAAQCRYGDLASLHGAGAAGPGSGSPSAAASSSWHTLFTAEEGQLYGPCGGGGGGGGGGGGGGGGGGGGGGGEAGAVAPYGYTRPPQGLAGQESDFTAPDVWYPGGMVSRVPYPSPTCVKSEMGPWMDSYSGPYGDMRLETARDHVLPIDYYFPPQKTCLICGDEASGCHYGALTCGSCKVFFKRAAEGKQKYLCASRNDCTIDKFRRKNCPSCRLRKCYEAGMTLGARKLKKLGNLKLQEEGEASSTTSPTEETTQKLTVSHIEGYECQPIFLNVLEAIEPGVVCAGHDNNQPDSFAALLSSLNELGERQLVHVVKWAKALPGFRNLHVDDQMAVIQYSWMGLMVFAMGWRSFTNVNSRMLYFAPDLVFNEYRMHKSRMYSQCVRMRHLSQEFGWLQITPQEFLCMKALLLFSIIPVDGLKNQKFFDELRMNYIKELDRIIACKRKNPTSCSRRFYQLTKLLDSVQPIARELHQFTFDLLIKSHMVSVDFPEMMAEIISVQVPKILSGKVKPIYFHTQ
Description: RLUs were measured using a luminometer (GloMaxTM 96-Microplate Luminometer, Promega) and are reported as the mean ± SEM of three individual experiments. For agonists, fold of induction = LUinduced/RLUuninduced. For antagonists, % of control = 100 × RLU (agonist + antagonist)/RLU (agonist alone). All RLUs were normalized against ffreffy RLUs/Renilla RLUs. Data are expressed as EC50/IC50 values in μM, and the IC50 of […] (μM) was calculated by plotting the data using nonlinear regression analysis in Graph-Pad Prism 5 software.

[6] = target: T2, AR-LBD (GST) (Rattus norvegicus, UniProt P15207); assay: Fluorescence polarization, PolarScreen AR Competitor Assay, Green
T2 sequence (P15207 651-882 limits assumed): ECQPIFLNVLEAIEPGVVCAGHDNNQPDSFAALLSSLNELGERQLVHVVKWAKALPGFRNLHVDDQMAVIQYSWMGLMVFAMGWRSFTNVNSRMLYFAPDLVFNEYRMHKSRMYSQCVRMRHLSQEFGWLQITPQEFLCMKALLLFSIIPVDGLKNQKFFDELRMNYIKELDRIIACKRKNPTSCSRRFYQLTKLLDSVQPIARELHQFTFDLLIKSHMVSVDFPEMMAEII
Description: Brieffy, the assay entails titration of the test compound against a preformed complex of Fluormone™AL Green and the AR-LBD (GST). […] Data analysis for the ligand binding assays was performed using Prism software (GraphPad Software, Inc.).

| Compound | IC50 ([1]; Homo sapiens, PC-3, PC-3 cells) [µM] | IC50 ([1]; PC-3 cells) [µM] | IC50 ([2]; Homo sapiens, LNCaP) [µM] | IC50 [3] [µM] | IC50 [4] [µM] | activity at 10 µM [5] [%] | IC50 [6] [µM] | IC50 [2] [µM] |
| --- | --- | --- | --- | --- | --- | --- | --- | --- |
| Cc1cc(C)cc(OCCc2ccc(CN3CCN(C(c4ccccc4)c4ccccc4)CC3)cc2)c1 [Compound 7, 1-benzhydryl-4-(4-(2-(3,5-dimethylphenoxy)ethyl)benzyl)piperazine] | < 5 | 2.95 ± 0.04 | > 50 | 24.76 ± 0.21 | > 50 | 50.1 ± 1.1 | 2.15 ± 0.13 |  |
| Clc1cc(Cl)cc(OCCc2ccc(CN3CCN(C(c4ccccc4)c4ccccc4)CC3)cc2)c1 [Compound 11, 1-benzhydryl-4-(4-(2-(3,5-dichlorophenoxy)ethyl)benzyl)piperazine] |  |  | > 50 | 17.43 ± 0.04 | > 50 | 51.2 ± 1.3 | 2.01 ± 0.15 |  |
| c1ccc(C(c2ccccc2)N2CCN(Cc3ccc(CCOc4cccc5c4CCCC5)cc3)CC2)cc1 [Compound 17, 1-benzhydryl-4-(4-(2-((5,6,7,8-tetrahydronaphthalen-1-yl)oxy)ethyl)benzyl)piperazine] |  |  |  | 7.32 ± 0.08 | > 50 | > 60 | 1.14 ± 0.12 |  |
| Cc1ccccc1OCCc1ccc(CN2CCN(C(c3ccccc3)c3ccccc3)CC2)cc1 [Compound 19, 1-benzhydryl-4-(4-(2-(o-tolyloxy)ethyl)benzyl)piperazine] |  |  |  | 0.87 ± 0.04 | > 50 | > 60 | 1.01 ± 0.03 |  |
| Cc1ccc(OCCc2ccc(CN3CCN(C(c4ccccc4)c4ccccc4)CC3)cc2)cc1C [Compound 20, 1-benzhydryl-4-(4-(2-(3,4-dimethylphenoxy)ethyl)benzyl)piperazine] |  |  |  | 3.89 ± 0.14 | > 50 | > 60 | 1.66 ± 0.12 |  |
| Clc1ccc(OCCc2ccc(CN3CCN(C(c4ccccc4)c4ccccc4)CC3)cc2)cc1 [Compound 21, 1-benzhydryl-4-(4-(2-(4-chlorophenoxy)ethyl)benzyl)piperazine] | < 5 | 2.83 ± 0.21 | 16.09 ± 0.12 | 13.7 ± 0.14 | 28.65 ± 0.13 | 49.4 ± 0.8 | 2.74 ± 0.16 |  |
| c1ccc(C(c2ccccc2)N2CCN(Cc3ccc(CCOc4cccc5ccccc45)cc3)CC2)cc1 [Compound 22, 1-benzhydryl-4-(4-(2-(naphthalen-1-yloxy)ethyl)benzyl)piperazine] | 10.1 ± 0.17 |  | 6.78 ± 0.14 | 15.76 ± 0.09 | 33.16 ± 0.15 | 40.3 ± 1.2 | 3.02 ± 0.24 |  |
| Brc1ccc(OCCc2ccc(CN3CCN(C(c4ccccc4)c4ccccc4)CC3)cc2)cc1 [Compound 23, 1-benzhydryl-4-(4-(2-(4-bromophenoxy)ethyl)benzyl)piperazine] |  |  | < 5 | 1.42 ± 0.11 | > 50 | > 60 | 1.72 ± 0.12 | 3.86 ± 0.13 |
| FC(F)(F)c1ccc(OCCc2ccc(CN3CCN(C(c4ccccc4)c4ccccc4)CC3)cc2)cc1 [Compound 24, 1-benzhydryl-4-(4-(2-(4-(trifluoromethyl)phenoxy)ethyl)benzyl)piperazine] | < 5 | 3.94 ± 0.14 | 14.6 ± 0.18 | 5.76 ± 0.14 | > 50 | 47.3 ± 0.6 | 2.87 ± 0.22 |  |
